Laboratory results published in PubChem BioAssay AID328 (DTP/NCI, 2004).
Where “and” joins values, the source holds several entries; their conditions need not be identical. Equal entries are not always repeated. Inconclusive results and toxic doses are left out.

Test system: BDF1 mice, P388 leukemia ip, median survival T/C
Assay: NCI In Vivo Anticancer Drug Screen. Data for tumor model P388 Leukemia (intraperitoneal) in B6D2F1 (BDF1) mice
Details: endpoint: median survival time, higher = longer survival
Procedure, shortened: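 Antitumour effect was judged in vivo: survival in drug-treated mice, normalised to that of vehicle-dosed controls, gives the reported T/C.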

[1] = dose: 100.0 mg/kg/injection, schedule: Q01DX009 (ip), vehicle: Klucel (hydroxypropylcellulose) (HPC)
[2] = dose: 100.0 mg/kg/injection, schedule: Q04DX003 (ip), vehicle: Klucel (hydroxypropylcellulose) (HPC)
[3] = dose: 200.0 mg/kg/injection, schedule: Q01DX009 (ip), vehicle: Klucel (hydroxypropylcellulose) (HPC)
[4] = dose: 200.0 mg/kg/injection, schedule: Q04DX003 (ip), vehicle: Klucel (hydroxypropylcellulose) (HPC)
[5] = dose: 400.0 mg/kg/injection, schedule: Q04DX003 (ip), vehicle: Klucel (hydroxypropylcellulose) (HPC)
[6] = dose: 25.0 mg/kg/injection, schedule: Q04DX003 (ip), vehicle: saline with Tween-80
[7] = dose: 100.0 mg/kg/injection, schedule: Q04DX003 (ip), vehicle: saline with Tween-80
[8] = dose: 75.0 mg/kg/injection, schedule: Q04DX003 (ip), vehicle: saline
[9] = dose: 150.0 mg/kg/injection, schedule: Q04DX003 (ip), vehicle: saline
[10] = dose: 300.0 mg/kg/injection, schedule: Q04DX003 (ip), vehicle: saline
[11] = dose: 50.0 mg/kg/injection, schedule: Q01DX009 (ip), vehicle: saline with Tween-80
[12] = dose: 100.0 mg/kg/injection, schedule: Q01DX009 (ip), vehicle: saline with Tween-80
[13] = dose: 200.0 mg/kg/injection, schedule: Q01DX009 (ip), vehicle: saline with Tween-80
[14] = dose: 400.0 mg/kg/injection, schedule: Q01DX009 (ip), vehicle: saline with Tween-80

C=C1C(=O)OC2/C=C(\C)CC/C=C(/C)CC(O)C12 (configuration not stated)
T/C (dose: 5.0 mg/kg/injection, schedule: Q04DX003 (ip), vehicle: saline with Tween-80): 98 % of control | T/C (dose: 10.0 mg/kg/injection, schedule: Q04DX003 (ip), vehicle: saline with Tween-80): 114 % of control | T/C (dose: 20.0 mg/kg/injection, schedule: Q04DX003 (ip), vehicle: saline with Tween-80): 98 % of control

Clc1ccc(N=Cc2ccccc2)cc1
T/C [1]: 90 % of control | T/C [2]: 108 % of control | T/C [3]: 90 % of control | T/C [4]: 95 % of control | T/C [5]: 100 % of control

CCCCOC1OC[N+](C)(C)CC1(C)C (configuration not stated)
T/C [6]: 102 % of control | T/C (dose: 50.0 mg/kg/injection, schedule: Q04DX003 (ip), vehicle: saline with Tween-80): 105 % of control | T/C [7]: 100 % of control and 105 % of control

O=C(C1CC2CCC1C2)C1CC2CCC1C2 (configuration not stated)
T/C (dose: 100.0 mg/kg/injection, schedule: Q01DX009 (ip), vehicle: other): 95 % of control | T/C [2]: 100 % of control | T/C [4]: 108 % of control | T/C [5]: 104 % of control

O=C(O)CCCCCS
T/C (dose: 50.0 mg/kg/injection, schedule: Q01DX009 (ip), vehicle: Klucel (hydroxypropylcellulose) (HPC)): 100 % of control | T/C [1]: 102 % of control | T/C [3]: 99 % of control

CCOC(=O)Cn1ccc(=O)[nH]c1=O
T/C [8]: 100 % of control | T/C [9]: 100 % of control | T/C [10]: 100 % of control

COc1cccc2c1C13CC(C)CC(C2)C1CCC(=O)N3 (configuration not stated)
T/C [8]: 100 % of control | T/C [9]: 105 % of control | T/C [10]: 116 % of control

C/C1=C/C2=CC(C)C[C@@H]2C(=O)[C@]2(C)C(=O)CC(C)(C)[C@H]2CC1=O (some centres not stated)
T/C (dose: 0.12 mg/kg/injection, schedule: Q01DX009 (ip), vehicle: alcohol): 106 % of control | T/C (dose: 0.25 mg/kg/injection, schedule: Q01DX009 (ip), vehicle: alcohol): 122 % of control | T/C (dose: 1.4 mg/kg/injection, schedule: Q01DX009 (ip), vehicle: alcohol): 108 % of control | T/C (dose: 2.2 mg/kg/injection, schedule: Q01DX009 (ip), vehicle: alcohol): 110 % of control

Cc1cc(Nc2cccc(Cl)c2)cc(=O)[nH]1
T/C (dose: 50.0 mg/kg/injection, schedule: Q01DX001 (ip), vehicle: saline with Tween-80): 113 % of control | T/C (dose: 100.0 mg/kg/injection, schedule: Q01DX001 (ip), vehicle: saline with Tween-80): 100 % of control | T/C (dose: 200.0 mg/kg/injection, schedule: Q01DX001 (ip), vehicle: saline with Tween-80): 98 % of control

Cc1cc(N(C)C)c2ccc3c(ccc4c(N(C)C)cc(C)nc43)c2n1
T/C [11]: 121 % of control | T/C [12]: 123 % of control

CCCCOP(=S)(N1CC1)N1CC1
T/C (dose: 1.78 mg/kg/injection, schedule: Q01DX009 (ip), vehicle: saline with Tween-80): 113 % of control | T/C (dose: 2.66 mg/kg/injection, schedule: Q01DX009 (ip), vehicle: saline with Tween-80): 150 % of control | T/C (dose: 2.66 mg/kg/injection, schedule: Q04DX003 (ip), vehicle: saline with Tween-80): 99 % of control | T/C (dose: 4.0 mg/kg/injection, schedule: Q01DX009 (ip), vehicle: saline with Tween-80): 186 % of control | T/C (dose: 4.0 mg/kg/injection, schedule: Q04DX003 (ip), vehicle: saline with Tween-80): 95 % of control | T/C (dose: 6.0 mg/kg/injection, schedule: Q01DX009 (ip), vehicle: saline with Tween-80): 216 % of control | T/C (dose: 6.6 mg/kg/injection, schedule: Q01DX009 (ip), vehicle: saline with Tween-80): 194 % of control | T/C (dose: 10.0 mg/kg/injection, schedule: Q01DX009 (ip), vehicle: saline with Tween-80): 211 % of control | T/C (dose: 11.0 mg/kg/injection, schedule: Q01DX009 (ip), vehicle: saline with Tween-80): 212 % of control | T/C (dose: 15.0 mg/kg/injection, schedule: Q01DX009 (ip), vehicle: saline with Tween-80): 108 % of control | T/C (dose: 25.0 mg/kg/injection, schedule: Q01DX009 (ip), vehicle: saline with Tween-80): 111 % of control | T/C (dose: 37.5 mg/kg/injection, schedule: Q01DX009 (ip), vehicle: saline with Tween-80): 95 % of control | T/C [11]: 96 % of control | T/C [7]: 263 % of control | T/C (dose: 200.0 mg/kg/injection, schedule: Q04DX003 (ip), vehicle: saline with Tween-80): 104 % of control

CCCCC(OC(=O)c1ccccc1)c1cc(OC(=O)c2ccccc2)c2c(c1OC(=O)c1ccccc1)CC(C)=C(C)C2 (configuration not stated)
T/C (dose: 12.5 mg/kg/injection, schedule: Q04DX003 (ip), vehicle: saline with Tween-80): 111 % of control | T/C [6]: 107 % of control

COc1ccc(CC2c3cc(OC)c(OC)cc3CCN2C(=O)c2ccccc2)cc1OC (configuration not stated)
T/C (dose: 50.0 mg/kg/injection, schedule: Q01DX005 (ip), vehicle: saline with Tween-80): 91 % of control | T/C (dose: 100.0 mg/kg/injection, schedule: Q01DX005 (ip), vehicle: saline with Tween-80): 91 % of control

O=CN(c1ccccc1)c1ccccc1
T/C [11]: 110 % of control | T/C (dose: 100.0 mg/kg/injection, schedule: Q01DX001 (ip), vehicle: other): 104 % of control | T/C [12]: 95 % of control | T/C (dose: 100.0 mg/kg/injection, schedule: Q04DX003 (ip), vehicle: other): 91 % of control | T/C (dose: 100.0 mg/kg/injection, schedule: Q04DX003 (ip), vehicle: saline): 95 % of control | T/C (dose: 175.0 mg/kg/injection, schedule: Q04DX003 (ip), vehicle: saline with Tween-80): 115 % of control | T/C (dose: 200.0 mg/kg/injection, schedule: Q01DX001 (ip), vehicle: other): 108 % of control | T/C [13]: 100 % of control | T/C (dose: 200.0 mg/kg/injection, schedule: Q04DX003 (ip), vehicle: other): 116 % of control | T/C (dose: 200.0 mg/kg/injection, schedule: Q04DX003 (ip), vehicle: saline): 100 % of control | T/C (dose: 400.0 mg/kg/injection, schedule: Q01DX001 (ip), vehicle: other): 87 % of control | T/C [14]: 105 % of control | T/C (dose: 400.0 mg/kg/injection, schedule: Q04DX003 (ip), vehicle: saline with Tween-80): 150 % of control | T/C (dose: 400.0 mg/kg/injection, schedule: Q04DX003 (ip), vehicle: saline): 86 % of control

O/N=C1/CCCc2ccccc21
T/C [12]: 86 % of control | T/C [13]: 86 % of control | T/C [14]: 86 % of control

C[C@]12CC[C@H]3[C@@H](CC[C@@H]4C[C@@H](O)CC[C@@]43C=O)[C@]13O[C@@H]3CC2c1ccc(=O)oc1 (some centres not stated)
T/C (dose: 0.25 mg/kg/injection, schedule: Q01DX009 (ip), vehicle: Klucel (hydroxypropylcellulose) (HPC)): 100 % of control | T/C (dose: 0.5 mg/kg/injection, schedule: Q01DX009 (ip), vehicle: Klucel (hydroxypropylcellulose) (HPC)): 98 % of control | T/C (dose: 1.0 mg/kg/injection, schedule: Q01DX009 (ip), vehicle: Klucel (hydroxypropylcellulose) (HPC)): 98 % of control | T/C (dose: 2.0 mg/kg/injection, schedule: Q01DX009 (ip), vehicle: Klucel (hydroxypropylcellulose) (HPC)): 100 % of control

O=[N+]([O-])c1ccccc1C=Nc1ccccc1
T/C (dose: 100.0 mg/kg/injection, schedule: Q01DX001 (ip), vehicle: Klucel (hydroxypropylcellulose) (HPC)): 100 % of control | T/C (dose: 100.0 mg/kg/injection, schedule: Q01DX009 (ip), vehicle: saline): 105 % of control | T/C [2]: 100 % of control | T/C (dose: 200.0 mg/kg/injection, schedule: Q01DX001 (ip), vehicle: Klucel (hydroxypropylcellulose) (HPC)): 104 % of control | T/C (dose: 200.0 mg/kg/injection, schedule: Q01DX009 (ip), vehicle: saline): 90 % of control | T/C [4]: 110 % of control | T/C (dose: 400.0 mg/kg/injection, schedule: Q01DX001 (ip), vehicle: Klucel (hydroxypropylcellulose) (HPC)): 95 % of control | T/C (dose: 400.0 mg/kg/injection, schedule: Q01DX009 (ip), vehicle: saline): 90 % of control | T/C [5]: 100 % of control
